Drawing on patent US20080171783A1, “COMPOSITIONS AND METHODS FOR TREATING HYPERPROLIFERATIVE DISEASE” (Migenix Inc., priority 2006, published 2008), this text covers inhibition, IC50 and CC50 for seven molecules.

What is called inhibition is the change of the read-out against control, counted positive when it falls. What is called IC50 is the midpoint of a concentration-inhibition curve. Broadly, the CC50 is the concentration that lowers cell viability or growth by half.

The target of one series is T1, Calf polymerase alpha (Bos taurus, UniProt A0AAA9TD94).
T1 construct: purchased Replizyme Ltd (Heslington, York, UK)
T1 sequence (A0AAA9TD94 1-1441): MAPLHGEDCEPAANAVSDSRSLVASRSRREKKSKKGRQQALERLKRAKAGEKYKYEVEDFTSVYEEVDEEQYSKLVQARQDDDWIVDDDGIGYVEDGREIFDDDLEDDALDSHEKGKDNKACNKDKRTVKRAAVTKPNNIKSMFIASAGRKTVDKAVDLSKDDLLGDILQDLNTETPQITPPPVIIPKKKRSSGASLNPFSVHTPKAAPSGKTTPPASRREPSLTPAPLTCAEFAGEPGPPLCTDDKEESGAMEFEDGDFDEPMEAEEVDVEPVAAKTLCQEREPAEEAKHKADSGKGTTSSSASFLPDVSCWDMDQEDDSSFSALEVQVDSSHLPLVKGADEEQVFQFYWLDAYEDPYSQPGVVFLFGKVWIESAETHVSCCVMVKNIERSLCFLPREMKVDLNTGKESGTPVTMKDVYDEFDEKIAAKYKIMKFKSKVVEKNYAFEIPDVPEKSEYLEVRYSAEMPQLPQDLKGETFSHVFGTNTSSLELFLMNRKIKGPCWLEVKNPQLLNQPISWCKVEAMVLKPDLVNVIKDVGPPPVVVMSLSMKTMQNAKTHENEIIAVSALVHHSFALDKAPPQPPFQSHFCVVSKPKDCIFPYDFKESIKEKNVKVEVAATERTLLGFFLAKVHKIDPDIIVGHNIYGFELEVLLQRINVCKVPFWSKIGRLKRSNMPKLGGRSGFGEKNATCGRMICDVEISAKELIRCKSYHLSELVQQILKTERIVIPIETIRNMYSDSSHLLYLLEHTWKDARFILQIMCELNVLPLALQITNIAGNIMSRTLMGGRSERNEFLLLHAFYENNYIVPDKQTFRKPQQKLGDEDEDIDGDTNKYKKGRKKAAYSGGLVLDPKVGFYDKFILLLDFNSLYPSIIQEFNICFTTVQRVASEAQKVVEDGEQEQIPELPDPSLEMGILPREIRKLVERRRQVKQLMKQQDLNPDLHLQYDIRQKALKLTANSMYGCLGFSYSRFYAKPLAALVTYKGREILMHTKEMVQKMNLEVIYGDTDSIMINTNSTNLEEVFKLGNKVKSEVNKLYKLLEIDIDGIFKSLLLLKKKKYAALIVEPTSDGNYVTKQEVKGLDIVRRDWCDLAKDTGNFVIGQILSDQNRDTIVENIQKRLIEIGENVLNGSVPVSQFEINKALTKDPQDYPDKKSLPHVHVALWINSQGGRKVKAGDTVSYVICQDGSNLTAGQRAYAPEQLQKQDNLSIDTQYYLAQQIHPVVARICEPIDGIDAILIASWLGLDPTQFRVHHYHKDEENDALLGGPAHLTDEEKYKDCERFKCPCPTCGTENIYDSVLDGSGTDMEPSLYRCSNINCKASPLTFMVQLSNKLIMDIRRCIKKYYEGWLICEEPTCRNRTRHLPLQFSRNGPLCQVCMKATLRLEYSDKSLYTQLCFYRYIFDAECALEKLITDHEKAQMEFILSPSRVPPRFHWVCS
The series can be described thus: Calf polymerase alpha inhibition (Replizyme kit). It is filed as biochemical. The settings on record: for inhibition at 10 µM: single point screening; for IC50: dose response. How it is done: (§1) Calf polymerase alpha and human polymerase alpha investigations were performed with a kit available from Replizyme Ltd (Heslington, York, UK).

Another series addresses T2, human polymerase alpha (Homo sapiens, UniProt P09884).
T2 construct: purchased Replizyme Ltd (Heslington, York, UK)
T2 sequence (P09884 1-1462): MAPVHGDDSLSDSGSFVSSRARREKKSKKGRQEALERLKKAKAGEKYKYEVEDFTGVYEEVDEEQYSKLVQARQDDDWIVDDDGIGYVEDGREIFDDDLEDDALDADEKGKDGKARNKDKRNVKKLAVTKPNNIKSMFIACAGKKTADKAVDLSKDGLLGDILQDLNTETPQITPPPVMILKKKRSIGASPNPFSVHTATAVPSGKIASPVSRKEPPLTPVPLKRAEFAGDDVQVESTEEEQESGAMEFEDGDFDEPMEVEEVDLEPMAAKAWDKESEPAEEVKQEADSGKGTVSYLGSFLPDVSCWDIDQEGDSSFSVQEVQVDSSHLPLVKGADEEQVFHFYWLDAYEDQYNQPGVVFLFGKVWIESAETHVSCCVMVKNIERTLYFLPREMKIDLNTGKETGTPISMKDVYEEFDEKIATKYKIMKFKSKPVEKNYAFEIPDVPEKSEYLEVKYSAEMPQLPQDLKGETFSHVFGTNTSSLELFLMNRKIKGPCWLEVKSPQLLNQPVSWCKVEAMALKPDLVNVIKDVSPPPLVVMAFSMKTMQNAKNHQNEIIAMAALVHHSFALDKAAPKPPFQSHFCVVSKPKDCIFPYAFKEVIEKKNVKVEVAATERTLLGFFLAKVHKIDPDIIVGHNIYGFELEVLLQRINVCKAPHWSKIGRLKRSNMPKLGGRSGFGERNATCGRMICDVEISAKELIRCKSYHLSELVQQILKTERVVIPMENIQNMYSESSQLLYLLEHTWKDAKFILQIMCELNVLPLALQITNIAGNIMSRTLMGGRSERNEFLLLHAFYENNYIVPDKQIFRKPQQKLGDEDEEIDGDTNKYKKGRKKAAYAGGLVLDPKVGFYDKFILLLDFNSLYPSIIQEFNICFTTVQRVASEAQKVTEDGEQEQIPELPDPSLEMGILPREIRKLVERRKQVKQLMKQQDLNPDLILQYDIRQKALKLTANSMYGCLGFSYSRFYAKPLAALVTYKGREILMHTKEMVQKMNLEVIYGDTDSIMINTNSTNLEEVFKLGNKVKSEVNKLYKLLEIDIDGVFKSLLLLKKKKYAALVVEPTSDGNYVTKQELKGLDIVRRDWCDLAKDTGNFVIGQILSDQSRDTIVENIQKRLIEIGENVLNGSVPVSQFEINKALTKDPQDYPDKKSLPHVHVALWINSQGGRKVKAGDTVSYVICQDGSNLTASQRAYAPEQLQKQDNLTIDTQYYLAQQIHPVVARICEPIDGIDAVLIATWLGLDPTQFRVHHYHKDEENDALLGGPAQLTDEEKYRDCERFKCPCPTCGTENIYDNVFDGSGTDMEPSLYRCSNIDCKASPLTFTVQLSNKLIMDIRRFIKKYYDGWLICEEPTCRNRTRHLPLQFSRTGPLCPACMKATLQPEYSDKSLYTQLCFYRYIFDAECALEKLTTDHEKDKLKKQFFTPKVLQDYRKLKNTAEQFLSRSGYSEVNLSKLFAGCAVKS
The series can be described thus: Human polymerase alpha inhibition (Replizyme kit). It counts as biochemical. The settings on record: dose response. How it is done:
as §1

Series [1] is described as follows: Cytotoxicity Huh-7 cells (MTS/PMS). It counts as cell-based. The following applies: human, 3-day incubation. The method, then: Cytotoxicity of compounds for use in treating hyperproliferative diseases or disorders was tested in Huh-7 cells using tetrazolium salt MTS combined with the electron acceptor PMS in a 96-well format. Six doses of each compound was tested, starting at about 1.2 μM to 0.4 μM serially diluted in a final 1% DMSO solution in DMEM/F12 media. Terfenadine was used as a positive control. Cells were seeded at 2.5×10^5 cells/mL in each well of the 96-well plates in a final volume of 0.1 mL, and then incubated at 37° C. in the presence of 5% CO2 overnight. Compounds (in media) were added the following day and the treated cells were incubated another 3-days at 37° C. in the presence of 5% CO2. After the 3-day incubation, 20 μL of MTS/PMS (3-(4,5-dimethylthiazol-2-yl)-5-(3-carboxymethoxy-phenyl)-2-(4-sulfophenyl)-2H-tetrazolium) was added to each well. After about a one to four hour incubation of MTS/PMS at 37° C. and 5% CO2—that is, until an OD490 absorbance of ≧0.6 for the wells containing cells with media only, the level of cytotoxicity at each concentration was calculated. […] Dose response results from the cytotoxicity assay (CC50) are provided in Table 4 in comparison with IC50 data (from Table 2)

For `Cc1ccc(NC(=O)C[C@H](CCCCN)NC(=O)Nc2ccc(OCc3ccccc3)cc2)cc1` [Compound 246, (S)-7-AMINO-3-[3-(4-BENZYLOXY-PHENYL)-UREIDO]-HEPTANOIC ACID P-TOLYLAMIDE], at Calf polymerase alpha, the inhibition at 10 µM was found to be 46.6% and it took 9.8 µM to reach half-maximal inhibition (IC50). At human polymerase alpha, the IC50 amounted to 8 µM. The CC50 at 3 days in series [1] was determined as 45.9 µM.
For `Cc1ccc(NC(=O)[C@H](CCCCN)NC(=O)Nc2ccc3c(c2)Cc2ccccc2-3)cc1` [Compound 125, (S)-6-AMINO-2-[3-(9H-FLUOREN-2-YL)-UREIDO]-HEXANOIC ACID P-TOLYLAMIDE], in that order: 100%, 2.8 µM, 3 µM and 9.7 µM.
For `NCCCC[C@H](NC(=O)Nc1ccc(OCc2ccccc2)cc1)C(=O)NCc1ccco1` [Compound 302, (S)-6-AMINO-2-[3-(4-BENZYLOXY-PHENYL)-UREIDO]-HEXANOIC ACID (FURAN-2-YLMETHYL)-AMIDE], in that order: 5%, more than 30 µM, 72 µM and more than 100 µM.
As for `NCCCC[C@H](NC(=O)Nc1ccc(-c2ccccc2)cc1)C(=O)Nc1ccc(C2CCCCC2)cc1` [Compound 119, (S)-6-AMINO-2-(3-BIPHENYL-4-YL-UREIDO)-HEXANOIC ACID (4-CYCLOHEXYL-PHENYL)-AMIDE], at Calf polymerase alpha, the inhibition at 10 µM is 102%. Also, the IC50 at Calf polymerase alpha and against human polymerase alpha was 1.5 µM each time. The molecule further gave a CC50 at 3 days in series [1] of 12.2 µM.
`NCCCC[C@H](NC(=O)OCC1c2ccccc2-c2ccccc21)C(=O)Nc1ccc(CN)cc1` [Compound 228, (S)-[5-AMINO-1-(4-AMINOMETHYL-PHENYLCARBAMOYL)-PENTYL]-CARBAMIC ACID 9H-FLUOREN-9-YLMETHYL ESTER]: the half-inhibitory concentration (IC50) at Calf polymerase alpha was found to be 5.5 µM. Also, the CC50 at 3 days in series [1] was found to be 36.7 µM.
The molecule `Cc1ccc(NC(=O)[C@H](CCCCN)NC(=O)CNc2ccc(Oc3ccccc3)cc2)cc1` [Compound 368, (S)-6-AMINO-2-[2-(4-PHENOXY-PHENYLAMINO)-ACETYLAMINO]-HEXANOIC ACID P-TOLYLAMIDE] showed an IC50 against Calf polymerase alpha of 6 µM. This molecule yielded a CC50 at 3 days in series [1] of 58 µM.
Turning to `Cc1ccc(NC(=O)[C@H](CCCCN)NC(=O)Nc2ccc(OCc3ccccn3)cc2)cc1` [Compound 299, (S)-6-AMINO-2-{3-[4-(PYRIDIN-2-YLMETHOXY)-PHENYL]-UREIDO}-HEXANOIC ACID P-TOLYLAMIDE], at Calf polymerase alpha, the inhibition at 10 µM was found to be 16% and the IC50 was more than 30 µM. The half-inhibitory concentration (IC50) on human polymerase alpha was 68 µM. Further, the cytotoxic concentration (CC50) at 3 days in series [1] is more than 100 µM.
